Our source for the Activity, viability and Ratio values is ChEMBL document CHEMBL1255215, “Synthesis and selective anticancer activity of organochalcogen based redox catalysts” (J Med Chem, 2010).

The test system of data set [1] is B-CLL. The experiment in a line: Cytotoxicity against human B-CLL cells assessed as reduction in cell viability. The data set is classed as functional, cell-based.
In data set [2] the test system is B-CLL. Nature of the data set: Cytotoxicity against human B-CLL cells assessed as reduction in cell viability at 10 uM. The data set is classed as functional, cell-based.
Data set [3] relates to PBMC. The experiment in a line: Cytotoxicity against human PBMC. Type of data set: cell-based.
A further data set relates to K562. Nature of the data set: Cytotoxicity against human K562 cells assessed as cell viability at 10 uM. The data set is classed as functional. To be noted: read-out: Activity.
The nature of data set [4]: Cytotoxicity against mouse NIH/3T3 cells at 1.25 uM. To be noted: nih3t3, 1.25 µM. The data set is classed as cell-based.
The subject of data set [5] is MCF7. Nature of the data set: Cytotoxicity against human MCF7 cells at 0.3 uM. Type of data set: functional.
Data set [6] concerns B-CLL. Nature of the data set: Induction of intracellular ROS level in human B-CLL cells by flow cytometry. Type of data set: functional, cell-based.
Data set [7] is described as follows: Cytotoxicity against human B-CLL cells assessed as reduction in cell viability at 1 uM relative to untreated control. The data set is classed as functional.
The test system of data set [8] is PBMC. The experiment in a line: Induction of intracellular ROS level in human PBMC cells by flow cytometry. Type of data set: functional, cell-based. (In flow cytometry, cells or beads pass a laser one at a time.)
Data set [9] concerns A549. Nature of the data set: Cytotoxicity against human A549 cells at 0.3 uM. Type of data set: functional.
The subject of the next data set is HUVEC. The experiment in a line: Cytotoxicity against HUVEC at 1.25 uM. Type of data set: cell-based. To be noted: human.
A short description of data set [10]: Cytotoxicity against human B-CLL cells assessed as reduction in cell viability at 500 nM relative to untreated control. The data set is classed as functional.
The subject of data set [11] is MCF7. Nature of the data set: Cytotoxicity against human MCF7 cells at 0.3 to 0.625 uM. The data set is classed as functional.
The next data set concerns HT-29. The experiment in a line: Cytotoxicity against human HT-29 cells at 0.3 to 0.625 uM. The data set is classed as functional.
Data set [12] has as its system B-CLL. Nature of the data set: Induction of apoptosis in human B-CLL cells assessed as caspase3 activation by […]. Type of data set: functional, cell-based.
The test system of data set [13] is A549. The experiment in a line: Cytotoxicity against human A549 cells at 0.3 to 0.625 uM. Type of data set: functional.
In data set [14] the test system is PBMC. The experiment in a line: Induction of apoptosis in human PBMC cells assessed as caspase3 activation by […]. The data set is classed as functional, cell-based.

Calls of active or inactive are those of the source. The calls are words filed in the database; no cut-off is given here. Some results are limits rather than exact numbers.

As to `O=C1C(Sc2ccccc2)=C(Sc2ccccc2)C(=O)c2ccccc21`, the result in the data set on B-CLL [1] and in the data set with B-CLL [2] was Active.

Regarding `O=C1C([Se]c2ccccc2)=C([Se]c2ccccc2)C(=O)c2c(O)ccc(O)c21`, the result in the data set with B-CLL [1] and in the data set on B-CLL [2] was Active. Besides, the Activity result in the data set with PBMC [3] was “Toxic”.

With `CCOC(C[Se]C1=C([Se]CC(OCC)OCC)C(=O)c2ccccc2C1=O)OCC`, in the data set on K562, the viability at 10 µM turned out to be 8.6%.

Take `CC1=C([Te]c2ccccc2)C(=O)c2ccccc2C1=O`: the viability at 10 µM in the data set on K562 was 4.1%. Further, the Activity in [4] is reported as less than 50%; in the data set on MCF7 [5] it was less than 50%; with A549 [9], less than 50%; in the data set with HUVEC, less than 50%; with PBMC [3], “Non-toxic”. The result in the data set on B-CLL [6] and in the data set on B-CLL [1] was Active. The Ratio turned out to be 5.03 in [7] and 3.17 in [10]. Besides, in the data set on PBMC [8], the outcome was inactive.

As for `O=C1C([Te]c2ccccc2)=C([Te]c2ccccc2)C(=O)c2ccccc21`, the viability at 10 µM in the data set on K562 turned out to be 15%. The Activity is less than 50% in data set [4]; less than 50% in the data set on MCF7 [11]; less than 50% in the data set with HT-29; less than 50% in the data set on A549 [13]; less than 50% with HUVEC; “Non-toxic” in the data set with PBMC [3]. Besides, the result with B-CLL [6], with B-CLL [12] and in the data set with B-CLL [1] was Active. The result in the data set on PBMC [8] and in the data set with PBMC [14] was inactive.

On to `CC1=C([Te]c2ccc(O)cc2)C(=O)c2ccccc2C1=O`, for which the viability at 10 µM with K562 amounted to 30%. In addition, in the data set on B-CLL [1], the result was inactive.

As to `O=C1C([Se]c2ccccc2)=C([Se]c2ccccc2)C(=O)c2ccccc21`, the result with B-CLL [1] was Active. Also, the Activity entry in the data set with PBMC [3] was “Non-toxic”.
